According to patent US9789096B2, “Methods and compositions for selective and targeted cancer therapy” (Board of Regents of the University of Texas System, priority 2013, dated 2017):
pIC50: −log10 of the molar value. Read-outs that look alike come from different tables or passages of the source.

Key:
Assay type in all cases: cell-based, human
H2122 = experiment: Cell viability dose-response, H2122; details: Homo sapiens; for AC50: NCI-H2122, Table 8, 12-point dose-response starting at 50 micromolar; for IC50: NCI-H2122, Tables 3 and 4, read-out: IC50 (uM) vs indicated non-small cell lung cancer cell line H2122
Procedure, shortened: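 Viability read as total ATP (Cell Titer Glo) following 4 days' compound exposure, with IC50 derived from dose-response curves. Duplicate 12-point series, top concentration 50 micromolar with 3-fold steps, on cells seeded at 15% confluence in RPMI-1640, 5% FBS, 2 mM L-glutamine.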

HCC44 = experiment: Cell viability dose-response, HCC44; details: Homo sapiens; for pIC50: HCC44, 12-point dose-response starting at 50 micromolar, 3-fold increments, in duplicate, read-out: toxicity data, HCC44; for AC50: HCC44, Table 8, 12-point dose-response starting at 50 micromolar; for IC50: HCC44, Tables 3 and 4, read-out: IC50 (uM) vs indicated non-small cell lung cancer cell line HCC44
Method: (§1) FIG. 6A. […] Cell viability is plotted vs. compound concentration. Compound was added to cells plated at 15% confluence in 96-well plates in RPMI-1640 media supplemented with 5% Fetal Bovine Serum and 2 mM L-Glutamine. After 4 days of incubation, ATP levels were measured using Cell Titer Glo (Promega). Data are presented as the average of 2 replicates ±SEM.
(§2) Selectivity may be measured by the half maximal inhibitory concentration (IC50), which, as used herein, is a measure of the effectiveness of a compound in killing cells. This quantitative measure indicates how much of a particular compound is needed to kill a particular cell population by half (e.g., as indicated by the amount of ATP). […] The IC50 can be determined by constructing a dose-response curve. The lower the IC50, the higher the potency, and the greater the difference between IC50 values for different cell lines (e.g., sensitive lines vs. insensitive lines, and sensitive lines vs. normal lines) the greater the selectivity. […]
(§3) With this information, we synthesized and tested a series of small molecules derived in conception from the oxalamide and chromone scaffold including N-acyl ureas, as shown in Tables 6-8. Each compound was tested in a 12-point dose-response study starting at 50 micromolar and decreasing in 3-fold increments to sub-nanomolar concentrations, in duplicate. Additionally, one or more additional cell line was tested in the same way.

H2009 = experiment: Cell viability dose-response, H2009; details: Homo sapiens; for pIC50 / IC50: NCI-H2009; for pIC50 / AC50: 12-point dose-response starting at 50 micromolar; for pIC50: 3-fold increments, in duplicate, read-out: toxicity data, H2009; for AC50: NCI-H2009, Table 8; for IC50: Tables 3 and 4, read-out: IC50 (uM) vs indicated non-small cell lung cancer cell line H2009
Method: as §1, §2, §3

[1] = NCI-H2122, 12-point dose-response starting at 50 micromolar, 3-fold increments, in duplicate, read-out: toxicity data, H2122
[2] = NCI-H2122, Table 9, competitor, read-out: IC50 to H2122 cells

Row | SMILES | pIC50 (H2122; [1]) | pIC50 (HCC44) | pIC50 (H2009) | also measured
1 | COc1ccc(CCNC(=O)NC(=O)c2ccc(OC)cc2)cc1 [SW208402-1-A] | 5.99 | ≤ 4.31 | ≤ 4.31 | 
2 | COc1ccc(CCNC(=O)NC(=O)c2cccc(OC)c2)cc1 [SW208403-1-A] | 5.96 | ≤ 4.31 | 4.37 | 
3 | COc1ccc(CCNC(=O)NC(=O)c2ccc(-c3ccncc3)cc2)cc1 [SW208404-1-A] | 4.66 | ≤ 4.31 | ≤ 4.31 | 
4 | COc1ccc(CCNC(=O)NC(=O)c2ccc(C(=O)N3CCOCC3)cc2)cc1 [SW208408-1-A] | ≤ 4.31 | ≤ 4.31 | 4.33 | 
5 | COc1ccc(CCNC(=O)NC(=O)c2ccc(C(=O)Nc3ccccc3OC)cc2)cc1 [SW208409-1-A] | 6.85 | ≤ 4.31 | ≤ 4.31 | 
6 | COc1ccc(CCNC(=O)NC(=O)c2ccc(C(=O)Nc3cccc(OC)c3)cc2)cc1 [SW208410-1-A] | ≤ 4.31 | ≤ 4.31 | 5.86 | 
7 | COc1ccc(CCNC(=O)NC(=O)c2ccc(C(=O)Nc3ccc(OC)cc3)cc2)cc1 [SW208411-1-A] | ≤ 4.31 | ≤ 4.31 | ≤ 4.31 | 
8 | COc1ccc(CCNC(=O)NC(=O)c2ccc(C(=O)NCc3ccccc3)cc2)cc1 [SW208412-1-A] | 6.57 | ≤ 4.31 | 5.67 | pIC50 (H2122; [2]): 6.56
9 | CNC(=O)c1ccc(C(=O)NC(=O)NCCc2ccc(OC)cc2)cc1 [SW208413-1-A] | ≤ 4.31 | ≤ 4.31 | 4.79 | 
10 | COc1ccc(CCNC(=O)NC(=O)c2ccc(C(=O)N3CCN(C)CC3)cc2)cc1 [SW208414-1-A] | ≤ 4.31 | ≤ 4.31 | 5.30 | 
11 | COc1ccc(CCNC(=O)NC(=O)c2ccc(C(=O)NC3CC3)cc2)cc1 [SW208452-1-A] | ≤ 4.31 | ≤ 4.31 | 4.88 | 
12 | COc1ccc(CCNC(=O)NC(=O)c2ccc(C(=O)NC3CCC3)cc2)cc1 [SW208453-1-A] | 6.06 | ≤ 4.31 | 5.79 | 
13 | COc1ccc(CCNC(=O)NC(=O)c2ccc(C(=O)NC3CCCC3)cc2)cc1 [SW208454-1-A] | 6.03 | ≤ 4.31 | ≤ 4.31 | 
14 | COc1ccc(CCNC(=O)NC(=O)c2ccc(C(=O)N(C)C)cc2)cc1 [SW208455-1-A] | ≤ 4.31 | ≤ 4.31 | 4.78 | pIC50 (H2122; [2]): 6.10
15 | COc1ccc(CCNC(=O)NC(=O)c2ccc(Oc3ccccc3)cc2)cc1 [SW208456-1-A] | 7.51 | 7.66 | ≤ 4.31 | 
16 | COc1ccc(CCNC(=O)NC(=O)c2ccc(OCc3ccccc3)cc2)cc1 [SW208457-1-A] | 7.51 | 7.64 | ≤ 4.31 | 
17 | COc1ccc(CCNC(=O)NC(=O)c2ccc(COc3ccccc3)cc2)cc1 [SW208458-1-A] | 8.00 | 8.10 | 7.00 | pIC50 (H2122; [2]): 8.37
18 | O=C(NCCc1ccc(O)cc1)NC(=O)c1ccc(C(=O)c2ccccc2)cc1 [SW208459-1-A] | 7.01 | 7.14 | 6.52 | pIC50 (H2122; [2]): 7.42
19 | COc1ccc(CCNC(=O)NC(=O)c2ccc(C(O)c3ccccc3)cc2)cc1 (stereo not drawn) [SW208460-1-A] | 7.01 | 7.08 | ≤ 4.31 | pIC50 (H2122; [2]): 7.34
20 | COc1ccc(CCN(C)C(=O)NC(=O)c2ccc(C(=O)c3ccccc3)cc2)cc1 [SW208461-1-A] | 5.06 | ≤ 4.31 | ≤ 4.31 | 
21 | COc1ccc(CCCNC(=O)c2ccc(Cl)cc2)cc1 [SW208462-1-A] | ≤ 4.31 | ≤ 4.31 | ≤ 4.31 | 
22 | COc1ccc(CCNC(=O)c2ccc(Cl)cc2)cc1 [SW208463-1-A] | ≤ 4.31 | ≤ 4.31 | ≤ 4.31 | 
23 | COc1ccc(CNC(=O)c2ccc(Cl)cc2)cc1 [SW208464-1-A] | ≤ 4.31 | ≤ 4.31 | ≤ 4.31 | 
24 | COc1ccc(C(=O)Nc2ccc(C(=O)c3ccccc3)cc2)cc1 [SW208465-1-A] |  | ≤ 4.31 | ≤ 4.31 | pIC50 (H2122; NCI-H2122, read-out: toxicity data, H2122): ≤ 4.31

Row | SMILES | pIC50 (H2122; [1]) | pIC50 (HCC44) | pIC50 (H2009) | also measured
25 | COc1ccc(CCC(=O)Nc2ccc(C(=O)c3ccccc3)cc2)cc1 [SW208466-1-A] | ≤ 4.31 | ≤ 4.31 | ≤ 4.31 | 
26 | O=c1c(Oc2ccccc2F)coc2cc(OCc3cnn(-c4cccc(F)c4)c3)ccc12 [SW208467] |  |  |  | AC50 (H2122): ≥ 49500 nM; AC50 (HCC44): 49500 nM; AC50 (H2009): 12600 nM
27 | O=c1c(Oc2ccccc2F)coc2cc(OCc3cnn(-c4ccc(F)cc4)c3)ccc12 [SW208468] |  |  |  | AC50 (H2122): ≥ 49500 nM; AC50 (HCC44): 49500 nM; AC50 (H2009): 22300 nM
28 | O=c1c(Oc2ccccc2F)coc2cc(OCc3cnn(-c4ccc(Cl)cc4)c3)ccc12 [SW208469] |  |  |  | AC50 (H2122): ≥ 49500 nM; AC50 (HCC44): 49500 nM; AC50 (H2009): 16500 nM
29 | COc1ccc(CCCC(=O)Nc2ccc(C(=O)c3ccccc3)cc2)cc1 [SW208470-1-A] | ≤ 4.31 | 4.46 | 4.46 | 
30 | COc1ccc(CCCCC(=O)Nc2ccc(C(=O)c3ccccc3)cc2)cc1 [SW208480-1-A] | 5.60 | 5.85 | ≤ 4.31 | 
31 | O=C(NCCc1ccc(O)cc1)NC(=O)c1ccc(COc2ccccc2)cc1 [SW208522-1-A] | 8.00 | 8.00 | 8.00 | pIC50 (H2122; [2]): 7.32
32 | O=C(NCCc1ccc(O)cc1)NC(=O)c1ccc(Oc2ccccc2)cc1 [SW208523-1-A] | 7.70 | 7.70 | 7.70 | 
33 | O=C(NCCc1ccc(O)cc1)NC(=O)c1ccc(OCc2ccccc2)cc1 [SW208524-1-A] | 7.70 | 8.00 | 8.00 | 
34 | COc1ccc(CCNC(=O)NC(=O)c2ccc(Nc3ccccc3)cc2)cc1 [SW208561-1-A] | 7.10 | 7.52 | 6.06 | pIC50 (H2122; [2]): 7.12
35 | O=C(NCCc1ccc(O)cc1)NC(=O)c1ccc(Nc2ccccc2)cc1 [SW208562-1-A] | 7.05 | 4.91 | 8.00 | pIC50 (H2122; [2]): 7.13
36 | COc1ccc(CCNC(=O)NC(=O)c2ccc(C(Cl)c3ccccc3)cc2)cc1 (stereo not drawn) [SW208563-1-A] | 7.22 | 7.52 | 6.00 | 
37 | COc1ccc(CCNC(=O)NC(=O)c2ccc(C(N)c3ccccc3)cc2)cc1 (stereo not drawn) [SW208564-1-A] | 6.49 | 7.22 | 5.25 | 
38 | COc1ccc(CCNC(=O)NC(=O)c2ccc(O)cc2)cc1 [SW208565-1-A] | 4.74 | 5.56 | 5.23 | 
39 | COc1ccc(CCNC(=O)N(C)C(=O)c2ccc(C(=O)c3ccccc3)cc2)cc1 [SW208566-1-A] | 5.21 | 5.11 | 4.99 | 
40 | COc1ccc(CCN(C)C(=O)N(C)C(=O)c2ccc(C(=O)c3ccccc3)cc2)cc1 [SW208567-1-A] | 4.81 | 5.10 | 4.78 | 
41 | COc1cccc(C(=O)c2ccc(C(=O)NC(=O)NCCc3ccc(O)cc3)cc2)c1 [SW208579-1-A] | 6.09 | 6.34 | 6.38 | 
42 | COc1ccccc1C(=O)c1ccc(C(=O)NC(=O)NCCc2ccc(O)cc2)cc1 [SW208580-1-A] | 5.02 | 5.09 | 5.67 | pIC50 (H2122; [2]): 6.10
43 | Cc1ccccc1C(=O)c1ccc(C(=O)NC(=O)NCCc2ccc(O)cc2)cc1 [SW208581-1-A] | 5.82 | 6.06 | 6.29 | 
44 | Cc1cccc(C(=O)c2ccc(C(=O)NC(=O)NCCc3ccc(O)cc3)cc2)c1 [SW208582-1-A] | 5.56 | 5.82 | 6.30 | pIC50 (H2122; [2]): 6.10
45 | COc1ccc(CC(=O)Nc2ccc(C(=O)c3ccccc3)cc2)cc1 [SW208583-1-A] | 5.47 | 5.37 | ≤ 4.31 | 
46 | O=c1c(Oc2cccc(F)c2)coc2cc(OCc3cnn(-c4ccccc4)c3)ccc12 [SW208592-1] |  |  |  | AC50 (H2122): 150 nM; AC50 (HCC44): 80 nM; AC50 (H2009): 16500 nM
47 | O=C(Nc1nc2ccccc2s1)c1ccc(C(=O)c2ccccc2)cc1 [SW208652-1] |  |  |  | pIC50 (H2122; [2]): 8.19; IC50 (H2122): 0.009 µM; IC50 (HCC44): 0.025 µM; IC50 (H2009): 2.42 µM
48 | O=C(Nc1nc2ccccc2[nH]1)c1ccc(C(=O)c2ccccc2)cc1 [SW208653-1] |  |  |  | pIC50 (H2122; [2]): 7.42; IC50 (H2122): 0.042 µM; IC50 (HCC44): 3.63 µM; IC50 (H2009): 1.8 µM
